Several values for one entry are separate records, joined by “and”; a condition that tells them apart may be missing. Equal values may be shown once.
How the values were obtained:
[1] = test system: injured cartilage explants, GAG release; assay: drop tower design model: GAG release; type: cell-based, bovine; details: injured cartilage explants, inflammatory conditions
Source text: The device comprises a vertical rail that guides a sliding weight from 0.1 kg to 3 kg directly onto a force transducer which is situated at the bottom of the device. A sphere-shaped 2 mm indenter resting on a specimen is located at the bottom of the vertical rail. The indenter is held by a stop screw. The specimen is rigidly attached to a tissue holder underneath the indenter, to avoid side movements, the specimen is rigidly attached to the tissue holder. In this manner, the force transducer transduces a force indirectly onto the specimen. Adjusting the weight of a mass and height from which the mass drops varies the magnitude of the intended impact. For example, a weight mass (e.g., […]) held by a weight holder can be released from a height of e.g., 36 cm and dropped onto the force transducer.
Samples for compound evaluation were tested using either of two different methods to induce inflammatory conditions. One method utilized media conditioned from peripheral blood mononuclear cells (PBMCs) stimulated with LPS (“+LPS”) or non-inflammatory media without LPS (“−LPS”). Another method utilized the absence or presence of a cocktail of cytokines.
In the first method, bovine or human PBMCs were freshly prepared using Ficoll gradient by Lampire Biological Laboratories, Inc. PBMCs in RPMI w/10% FCS at delivery were spun down at 1500 rpm for twenty minutes and the cell pellet was washed twice with 1×PBS to wash off the residual Ficoll. The cells were then resuspended at a density of 1×10^6/ml in RPMI supplemented with 10% FCS, 1× Antibiotics-Antimycotics. The suspension was divided into two aliquots. One aliquot was stimulated with 10 μg/ml of LPS and the other was not stimulated. Both aliquots were then incubated at 37° C., 5% CO2 for twenty-four to seventy-two hours. The conditioned media with or without LPS stimulation are collected, aliquoted, and stored in −80° C. for a maximum of three months. Each conditioned medium was assessed for levels of pro-inflammatory cytokines to ensure their secretion from PBMC. A representative cytokine, IL-6, was assayed by ELISA using a Human IL-6 Quantikine kit and it was shown that the LPS-stimulated medium had at least 10 ng/ml of IL-6, while IL-6 was undetectable in the unstimulated medium.
In the second method, the explants were cultured at 37° C., 5% CO2 either in stimulated or non-stimulated conditioned medium as described above or in defined medium containing DMEM supplemented with 1% FCS, 1× insulin-transferrin-sodium selenite media supplement and Antibiotics-Antimycotics in the presence or absence of a cocktail of cytokines containing 10 ng/ml of IL-1β, 100 ng/ml of TNFα and 5 ng/ml of IFN-γ. The compounds were solubilized in H2O, Ethanol or DMSO (10^−2 M) according to suppliers' instructions and further diluted with either conditioned medium stimulated with or without LPS to the required concentrations. DMSO concentrations in the culture media never exceeded 1%. This concentration of DMSO has no effect on cartilage proteoglycan metabolism in response to cytokines. The injured and noninjured cartilage explants were treated with compound-containing medium for three to five days. The specimens were first treated with compounds at desired concentrations at 37° C. for one hour and then incubated for three to five days in the absence or presence of the cocktail of cytokines. At the end of the incubation, media and cartilage samples were harvested and frozen for further analysis.
Glycosaminoglycan (GAG) levels in the culture media or cartilage were determined by measuring the amount of polyanionic material reacting with 1,9-dimethylmethylene blue (DME) as detected by absorbance at 525 nm, using shark chondroitin sulfate as a standard. The DME blue dye-binding solution was prepared by dissolving 16 mg of DME blue in a solution containing 0.304% glycine, 0.23% NaCl, 9.5 mM HCl, pH=3.0 with A525 equaling 0.31. […]

[2] = test system: rabbit anterior cruciate ligament transection (ACLT) model of osteoarthritis; assay: ACLT model, preventative dosing regimen (Example IX); type: in vivo; parameters: key to Trochlear Groove Erosion of Cartilage, mean score / Tibial Plateau # of Osteophytes (Medial), mean score: gross grading scale; higher score = more joint damage; key to All Condylar Effects (0-18), mean: score 0-18; higher = more joint damage
Method: 130 Female New Zealand white rabbits underwent ACLT on the right knee. Intra-articular injections were administered to the operated knee once per week for five weeks beginning either one or six weeks after the ACLT. All animals were euthanized one week after the administration of the fifth injection. Gross observations were made on the knee joints according to a predetermined grading scale. The stifle joints were removed. Samples were preserved in 10% neutral buffered formalin. The stifle joints were photographed using high-resolution photography.
The ACLT was performed according to the ACLT model discussed above. Animals were group housed in pens on the floor and left untreated for one week to allow healing of the surgical site. Then, once weekly for five weeks, intra-articular injections were administered. One week following the last injection, the animals were sacrificed. The total in-life portion of the preventative dosing regimen was […]. Previous studies have confirmed that the six week time-point allows sufficient degeneration changes to occur.
The study design consisted of an n=10 per group. A total of 160 μl was injected at each administration.
At the time of sacrifice the following parameters were evaluated grossly (the scale follows in parenthesis):
Each parameter was given a score. The combination of all parameters gave a Total Score (0-52). Additionally, combinations of the three subsets of data yielded scores for All Trochlear Groove Effects (0-10), All Condylar Effects (0-18) and All Tibial Plateau Effects (0-24). […] […] The grades that compose this parameter are trochlear groove thickness and erosion, all the grades in All Condylar Effects, and all grades listed under Tibial Plateau. A higher score indicates more damage to the joint. A lower score indicates less damage or more cartilage preservation in the joint. Individual results for each parameter assessed were tabulated.

| Structure (SMILES) | GAG, inhibition of degradation/release [1] | All Cartilage Effects (0-40), mean [2] | All Condylar Effects (0-18), mean [2] | All Tibial Plateau Effects (0-24), mean [2] | All Trochlear Groove Effects (0-10), mean [2] | Femoral Condyle % Surface Area Erosion (Lateral), mean score [2] | Femoral Condyle % Surface Area Erosion (Medial), mean score [2] | Femoral Condyle Depth of Erosion (Lateral), mean score [2] | Femoral Condyle Depth of Erosion (Medial), mean score [2] | Femoral Condyle Presence of Clefts, mean score [2] | Tibial Plateau # of Osteophytes (Lateral), mean score [2] | Tibial Plateau # of Osteophytes (Medial), mean score [2] | Tibial Plateau % Surface Area Erosion (Lateral), mean score [2] | Tibial Plateau % Surface Area Erosion (Medial), mean score [2] | Tibial Plateau Depth of Erosion (Lateral), mean score [2] | Tibial Plateau Depth of Erosion (Medial), mean score [2] | Tibial Plateau Presence of Clefts (Lateral), mean score [2] | Tibial Plateau Presence of Clefts (Medial), mean score [2] | Total Score (0-52), mean [2] | Trochlear Groove # of Osteophytes, mean score [2] | also measured |
| --- | --- | --- | --- | --- | --- | --- | --- | --- | --- | --- | --- | --- | --- | --- | --- | --- | --- | --- | --- | --- | --- |
| CC(=O)Oc1cccc2c1C(=O)c1c(OC(C)=O)cc(C(=O)O)cc1C2=O [Diacerein, reference compound] | completely inhibited | – | – | – | – | – | – | – | – | – | – | – | – | – | – | – | – | – | – | – | – |
| OCCC#Cc1nc(-c2ccc(F)cc2)c(-c2ccncc2)n1CCCc1ccccc1 [JNJ 3026582 (RWJ 67657), 4-[4-(4-fluorophenyl)-1-(3-phenylpropyl)-5-(4-pyridinyl)-1H-imidazol-2-yl]-3-butyn-1-ol] | little efficacy | 4.3+1.8 and 4.3 | 1.6 ± 1.3 and 1.6 | 3.7 | 6.6 | 0.4 ± 0.3 and 0.4 | 0.5 ± 0.4 and 0.5 | 0.4 ± 0.3 and 0.4 | 0.3+0.3 and 0.3 | 0 | 0.6 | 1.7 | 0.7 | 0 | 0.7 | 0 | 0 | 0 | 11.9 ± 2.2 and 11.9 | 2.8 | Trochlear Groove Erosion of Cartilage, mean score [2]: 1.3; Trochlear Groove Osteophyte Size, mean score [2]: 2.5; Trochlear Groove Thickening, mean score [2]: 0 |
| C[C@H](Nc1nccc(-c2c(-c3ccc(F)cc3)nc3nc(N)ccn23)n1)c1ccccc1 [JNJ 7583979 (RWJ 351958)] | little efficacy | – | – | – | – | – | – | – | – | – | – | – | – | – | – | – | – | – | – | – | GAG, inhibition of degradation/release ([1]; listed as JNK 7583979 (RWJ 351958)): little |
| CC(=O)N1CCN(c2c(-c3ccncc3)c(-c3ccc(F)cc3)c(C#N)n2C)CC1 [JNJ 17089540 (RWJ 669307)] | – | 5.8+2.0 and 5.8 | 2.7 ± 1.3 and 2.7 | 4.1 | 6.2 | 1.2 | 0.3+0.3 and 0.3 | 0.2+0.2 and 0.2 | 0.2+0.2 and 0.2 | 0 | 0.4 | 1.4 | 1.3 | 0 | 0.8 | 0 | 0 | 0 | 12.9 ± 2.3 and 12.9 | 2.6 | Trochlear Groove Erosion of Cartilage, mean score [2]: 1.0; Trochlear Groove Osteophyte Size, mean score [2]: 2.7; Trochlear Groove Thickening, mean score [2]: 0 |
| CC(C(=O)O)c1ccc(C(=O)c2cccs2)cc1 (stereo not shown) [Suprofen, reference compound] | – | 6.8 | 4.1 | 3.1 | 7.1 | 2.1 | 0.1+0.1 and 0.1 | 1.6 | 0.3+0.3 and 0.3 | 0 | 0.5 | 1.1 | 0.9 | 0 | 0.5 | 0 | 0 | 0 | 14.1 | 2.8 | Trochlear Groove Erosion of Cartilage, mean score [2]: 1.5; Trochlear Groove Osteophyte Size, mean score [2]: 2.8; Trochlear Groove Thickening, mean score [2]: 0 |

Source: patent US8986696B2, “Trans-capsular administration of p38 map kinase inhibitors into orthopedic joints” (DePuy Mitek, Inc., priority 2007, dated 2015)
